Assay results: patent US9394547B2, “Method and apparatus for delivery of molecules to cells” (CITY UNIVERSITY OF HONG KONG, priority 2012, dated 2016)
Where a name gives a salt, the structure may show the parent alone.

Assays:
[1] = system: A549 cells; test: Live-cell confocal imaging of luminescent iridium(III) complex delivery; assay type: cell-based
Description: In this embodiment, suspension with the subjects was applied to the nanoneedle array at a speed of about 3.0 m/s. After treatment with the nanooneedles, the cells were grown on a sterile glass coverslip for 19 hours followed by PBS washing and then investigated by fluorescence confocal microscopy. Negligible cell death was found under microscopy in the experiments. FIG. 12a is a representative image showing the intracellular delivery of the iridium(III) polypyridine complex to A549 cells. […] In comparison, FIG. 12b is the image of the control group in which the cells were incubated with the complex for 19 hours but not treated with nanoneedles before incubation. FIGS. 12a and 12b were taken under the same microscope settings. […] (The arrows in the figures indicate the cells in which direct nucleic delivery of the luminescent complex is achieved with diamond needles treatment. The scale bars in FIGS. 12a), b), e) and f) indicate 25 μm).
The fluorescence intensities in the cytoplasm of the two selected cells were normalized to be the same value and the fluorescence intensities in the nucleus of the two cells were compared. The representative results are shown in FIG. 12c for a nanoneedle-treated cell and FIG. 12d for a cell without treatment. […] For the nanoneedle treated group, unexpectedly, a number of cells in which the fluorescence signal was almost evenly distributed in the entire cells were found. For this reason, it was not apparent to locate their nuclei (indicated by the arrows in FIGS. 12e and 12f).
A549 cells were maintained as exponentially growing cultures in a Dulbecco's modified Eagle's medium (DMEM) with 10% FBS and 1% penicillin/streptomycin at 37° C. The cells were trypsinized and suspended in DMEM medium. There are about 6×10^4 cells in one milliliter. Iridium(III) polypyridine complex was added to the cell medium at a concentration of 0.1 μM. […]
A549 cell suspension in medium/DMSO (99:1, v/v) containing [Ir(ppy)2(bpy-Et)](PF6) (0.1 μM) was prepared. […] The emission was measured using a long-pass filter at 532 nm.

[2] = system: NIH3T3 fibroblast cells; test: Cytosolic delivery into fibroblast cells by diamond nanoneedle array under centrifugation (live/dead calcein AM/EthD-1 staining); assay type: cell-based
From the text: This kit has been widely used to characterize cell viability and cytotoxicity. In the assays, with application of nanoneedle array to cells, the membrane-permeant calcein AM enters cells and is cleaved by esterases in live cells to yield cytoplasmic green fluorescence; while the membrane-impermeant ethidium homodimer-1 (EthD-1) labels nucleic acids of membrane-disrupted cells with red fluorescence. […] In comparison, dead cells were labeled with only red fluorescence (FIG. 5). FIG. 5a are representative images of fibroblast cells after successful cytosolic delivery of EthD-1; FIG. 5b is a chart showing quantification of delivery efficiency; and FIG. 5c is a chart showing quantification of cell viability after being treated with nanoneedles arrays; all at a scale bar of 100 um.
In an embodiment, the penetration and subsequent disruption of cell membrane by nanoneedles was precisely controlled by centrifugation-induced supergravity to achieve reliable, highly efficient, diffusion based cytosolic delivery. In a specific embodiment, in order to optimize the force applied onto the cell membranes through nanoneedles, the whole setup (cell culture plus nanoneedle array) was maintained in supergravity by centrifugation at a series of speeds from 300 rpm (12.8 g, RCF) to 1000 rpm (142 g). […]

[3] = system: primary hippocampal neurons; test: Cytosolic delivery into primary hippocampal neurons by diamond nanoneedle array under centrifugation (live/dead staining); assay type: cell-based; conditions: around 300 rpm (12.8 g)
Description: Intracellular delivery into post-mitotic cells, such as neuron, has always been challenging. […] Compared with fibroblast cells, neurons are more vulnerable to membrane disruption induced by nanoneedle arrays. Generally, a relatively lower speed would be required to achieve similar delivery efficiency as in fibroblast cells (FIG. 6). […] Therefore, a centrifuging speed of 300-400 rpm was selected for following experiments with primary neurons. FIG. 6a are representative images of fibroblast cells after successful cytosolic delivery of EthD-1; FIG. 6b is a chart showing quantification of delivery efficiency; and FIG. 6c is a chart showing quantification of cell viability after being treated with nanoneedles arrays; all at a scale bar of 100 um.
Hippocampal neuron cultures were prepared following the method previously described. Briefly, dissociated neurons were prepared from hippocampi dissected from E18 Sprague Dawley rats by enzymatic treatment with papain (Sigma) for 30 min at 37° C. followed by trituration with a 1 ml pipette tip. Before seeding neurons, all substrates were pre-coated with polylysine (Sigma, 100 μg ml^−1) and laminin (Invitrogen, 10 μg ml^−1). Neuron cells were treated with nanoneedle arrays at 6-7 days in vitro (DIV).
Nanoneedle array was placed to float on culture medium with the needles facing toward cells. […]

[4] = system: MC-3T3 cells; test: Flow cytometry of fluorescein intracellular delivery with diamond nanocone array; assay type: cell-based, Mouse; conditions: fluorescein 1 mg/ml
Description: Mouse MC3T3-E1 pre-osteoblasts, which can differentiate into osteoblasts, were used in the present study. The cells were cultured at 37° C. with 5% carbon dioxide (CO2) and 95% humidified air in Dulbecco's Modified Eagle Medium (DMEM) (Gibco) supplemented with 10% fetal bovine serum (FBS) (Gibco). The medium was renewed every 2-3 days and confluent cells were subcultured through trypsinization.
Three groups of cells were studied. One group was untreated cells. Other two groups included the cells which were treated by smooth silicon substrate and diamond nanocone array. For treatment, a volume of […] MC-3T3 cell suspension was applied to the substrate with a speed of about 3 ms^−1 by a pipette (FIG. 16). After the application, the cell suspension was collected and pipetted to the substrate again with a similar speed. Such cell treatment procedure was repeated for 15 times. The same procedures were used in all experiments for enhanced intracellular delivery. Following cell treatment, cells were plated into 96-well microtiter plates. After 22 hours, morphology of each group of cells was observed by optical microscopy. After 24 hours, cell viability was determined by MTT assay.
Subsequently, the enhanced intracellular delivery capability of the diamond nanocone array was firstly assessed by investigating the fluorescence intensity of fluorescein sodium salt stain in treated cells by quantitative analysis through flow cytometry. MC-3T3 cells were harvested at a density of 10^4 cells/ml. Fluorescien was added to cell growth medium at a concentration of 1 mg/ml. After the addition of fluorescein, a volume of 1 ml of this cell suspension was treated with the same method as that described above. Two experiments were arranged in investigating the intracellular delivery of fluorescein sodium salt. In one experiment, the negative control was to apply cells to a smooth silicon substrate without the nanocone array. In the other experiment, untreated cells were used as the control (i.e. neither nanocone array nor smooth Si substrate was used). After 15 min of staining, the suspensions of control and treated group cells were pelleted by centrifugation (Spectrafuge™ 16 M, Labnet) at 6000 rpm for 3 min, after which the supernatants were removed. The cell pellets were washed by 1 mL of phosphate buffered saline (PBS) and then resuspended throughly. The cell suspensions were centrifuged again at 6000 rpm for 3 min, and the cell pelletes were washed by PBS for 3 times in total. Finally, the cell suspensions were prepared with a concentration of 10^4 cells in PBS and then immediately analysed using a flow cytometer (Becton DICKINSON, FACSCalibur cytometer) by counting 1×10^4 cells per sample. […]

## [Ir(ppy)2(bpy-Et)](PF6) [iridium(III) polypyridine complex]
[1]; A549 cells, 0.1 μM, 19-hour incubation, not treated with nanoneedles
  fluorescence signal: extremely weak
[1]; A549 cells, 0.1 μM, nanoneedle treated, 19 hours
  intracellular localization: mainly localized in the perinuclear region
[1]; by diffusion, without nanoneedles
  nuclear uptake: negligible nuclear uptake

## ethidium homodimer-1 [EthD-1]
[2]; centrifugation 300 rpm
  cytosolic delivery efficiency of EthD-1: ~5%
[2]; centrifugation 500 rpm or above
  cytosolic delivery efficiency of EthD-1: ~80%
[3]
  delivery efficiency of EthD-1: about 80%

## O=C1OC2(c3ccc(O)cc3Oc3cc(O)ccc32)c2ccccc21 [fluorescein sodium salt]
[4]; FIG. 20, cells treated with the nanocone array
  M3, percentage of cells with fluorescence intensity 1×10^2 to 1×10^3: 73.5%
[4]; FIG. 20, control cells applied to smooth Si substrate
  M2, percentage of cells with fluorescence intensity 1×10^1 to 1×10^2: 63.1%
[4]; FIG. 21, cells treated with the nanocone array
  M3, percentage of cells with fluorescence intensity 1×10^2 to 1×10^3: 62.4%
[4]; FIG. 21, untreated sample (no nanocone, no Si substrate)
  M2, percentage of cells with fluorescence intensity 1×10^1 to 1×10^2: 70.0%
